The compounds below were run against T1, HPK1 kinase (aa1-346, Life Technologies) (Homo sapiens, UniProt Q92918) (assay: HPK Kinase Activity Assay at 1 mM ATP (TR-FRET)). Details: HPK1 kinase 40 nM, 0.5 μM STK1 substrate, read-out: Enzymatic activity IC50.
T1 construct: HPK1 kinase (aa1-346, Life Technologies); purchased Life Technologies
T1 sequence (Q92918 1-346): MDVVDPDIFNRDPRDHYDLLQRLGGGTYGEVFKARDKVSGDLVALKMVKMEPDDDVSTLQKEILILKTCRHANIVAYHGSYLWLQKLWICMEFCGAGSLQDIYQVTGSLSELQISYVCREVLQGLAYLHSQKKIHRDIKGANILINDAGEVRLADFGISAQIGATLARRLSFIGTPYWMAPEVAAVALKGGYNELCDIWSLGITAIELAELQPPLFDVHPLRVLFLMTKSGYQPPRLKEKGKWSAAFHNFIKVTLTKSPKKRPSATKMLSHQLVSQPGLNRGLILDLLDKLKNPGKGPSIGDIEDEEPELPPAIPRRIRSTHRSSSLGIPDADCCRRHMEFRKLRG
Type: biochemical
In short: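 HPK1 (aa1-346, 40 nM) was preincubated 60 min at room temperature with compound (0–10 μM) in pH 7.0 HEPES/MgCl2 buffer. Reaction ran 120 min at room temperature with 1 mM ATP and 0.5 μM STK1 substrate. Phosphorylation was read as the TR-FRET 665/620 nm ratio, with IC50 from a four-parameter logistic fit.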

| Structure (SMILES) | IC50 [nM] |
| --- | --- |
| Cc1cc(-c2cnc(N)c(-n3cc(C(=O)N(C)C4CCOC4)cn3)n2)cc2c1CCN(C)C2 (centres unmarked) [Example 306, 1-(3-amino-6-(2,5-dimethyl-1,2,3,4-tetrahydroisoquinolin-7-yl)pyrazin-2-yl)-N-methyl-N-(tetrahydrofuran-3-yl)-1H-pyrazole-4-carboxamide] | 89 |
| Cc1cc(-c2cnc(N)c(Oc3cnn(CCC#N)c3)n2)cc2c1CN(C)CC2 [Example 308, 3-(4-((3-amino-6-(2,8-dimethyl-1,2,3,4-tetrahydroisoquinolin-6-yl)pyrazin-2-yl)oxy)-1H-pyrazol-1-yl)propanenitrile] | 48 |
| Cc1cc(-c2cnc(N)c(Oc3cnn(C4CCOCC4)c3)n2)cc2c1CCN(C)C2 [Example 309, 5-(2,5-dimethyl-1,2,3,4-tetrahydroisoquinolin-7-yl)-3-(1-(tetrahydro-2H-pyran-4-yl)-1H-pyrazol-4-yloxy)pyrazin-2-amine] | 22 |
| CCN1CC(n2cc(Oc3nc(-c4cc(C)c5c(c4)CN(C)CC5)cnc3N)cn2)C1 [Example 310, 5-(2,5-dimethyl-1,2,3,4-tetrahydroisoquinolin-7-yl)-3-(1-(1-ethylazetidin-3-yl)-1H-pyrazol-4-yloxy)pyrazin-2-amine] | 20 |
| Cc1cc(-c2cnc(N)c(Oc3cnn([C@H]4CC[C@@](C)(O)CC4)c3)n2)cc2c1CN(C)CC2 [Example 312, (1s,4s)-4-(4-(3-amino-6-(2,8-dimethyl-1,2,3,4-tetrahydroisoquinolin-6-yl)pyrazin-2-yloxy)-1H-pyrazol-1-yl)-1-methylcyclohexanol] | 63 |
| Cc1cc(-c2cnc(N)c(Oc3cnn([C@H]4C[C@H](C#N)C4)c3)n2)cc2c1CCN(C)C2 [Example 315, (1r,3r)-3-(4-((3-amino-6-(2,5-dimethyl-1,2,3,4-tetrahydroisoquinolin-7-yl)pyrazin-2-yl)oxy)-1H-pyrazol-1-yl)cyclobutane-1-carbonitrile] | 33 |
| Cc1cc(-c2cnc(N)c(Oc3cnn([C@H]4C[C@H](C#N)C4)c3)n2)cc2c1CN(C)CC2 [Example 316, (1r,3r)-3-(4-((3-amino-6-(2,8-dimethyl-1,2,3,4-tetrahydroisoquinolin-6-yl)pyrazin-2-yl)oxy)-1H-pyrazol-1-yl)cyclobutane-1-carbonitrile] | 85 |
| Cc1cc(-c2cnc(N)c(Oc3cnn(C(C)(C)C#N)c3)n2)cc2c1CCN(C)C2 [Example 317, 2-(4-(3-amino-6-(2,5-dimethyl-1,2,3,4-tetrahydroisoquinolin-7-yl)pyrazin-2-yloxy)-1H-pyrazol-1-yl)-2-methylpropanenitrile] | 20 |
| Cc1cc(-c2cnc(N)c(Oc3cnn(CC(C)(C)C#N)c3)n2)cc2c1CN(C)CC2 [Example 318, 3-(4-(3-amino-6-(2,8-dimethyl-1,2,3,4-tetrahydroisoquinolin-6-yl)pyrazin-2-yloxy)-1H-pyrazol-1-yl)-2,2-dimethylpropanenitrile] | 60 |

Compounds with a lower IC50, results first:

| IC50 [nM] | Structure (SMILES) |
| --- | --- |
| 16 | Cc1cc(-c2cnc(N)c(Oc3cnn(CC(F)(F)F)c3)n2)cc2c1CCN(C)C2 [Example 303, 5-(2,5-dimethyl-1,2,3,4-tetrahydroisoquinolin-7-yl)-3-((1-(2,2,2-trifluoroethyl)-1H-pyrazol-4-yl)oxy)pyrazin-2-amine] |
| 10 | Cc1cc(-c2cnc(N)c(-n3cc(C(=O)N(C)CC4CCOC4)cn3)n2)cc2c1CCN(C)C2 (centres unmarked) [Example 304, 1-(3-amino-6-(2,5-dimethyl-1,2,3,4-tetrahydroisoquinolin-7-yl)pyrazin-2-yl)-N-methyl-N-((tetrahydrofuran-3-yl)methyl)-1H-pyrazole-4-carboxamide] |
| 8.9 | Cc1cc(-c2cnc(N)c(-n3cc(C(=O)NC4CCOC4)cn3)n2)cc2c1CCN(C)C2 (centres unmarked) [Example 305, 1-(3-amino-6-(2,5-dimethyl-1,2,3,4-tetrahydroisoquinolin-7-yl)pyrazin-2-yl)-N-(tetrahydrofuran-3-yl)-1H-pyrazole-4-carboxamide] |
| 5.9 | Cc1cc(-c2cnc(N)c(Oc3cnn(C4CCN(C)CC4)c3)n2)cc2c1CCN(C)C2 [Example 307, 5-(2,5-dimethyl-1,2,3,4-tetrahydroisoquinolin-7-yl)-3-(1-(1-methylpiperidin-4-yl)-1H-pyrazol-4-yloxy)pyrazin-2-amine] |
| 7.7 | Cc1cc(-c2cnc(N)c(Oc3cnn([C@H]4CC[C@@](C)(O)CC4)c3)n2)cc2c1CCN(C)C2 [Example 311, (1s,4s)-4-(4-(3-amino-6-(2,5-dimethyl-1,2,3,4-tetrahydroisoquinolin-7-yl)pyrazin-2-yloxy)-1H-pyrazol-1-yl)-1-methylcyclohexanol] |
| 8.3 | Cc1cc(-c2cnc(N)c(Oc3cnn(C(C)(C)CC#N)c3)n2)cc2c1CCN(C)C2 [Example 313, 3-(4-(3-amino-6-(2,5-dimethyl-1,2,3,4-tetrahydroisoquinolin-7-yl)pyrazin-2-yloxy)-1H-pyrazol-1-yl)-3-methylbutanenitrile] |
| 4.5 | Cc1cc(-c2cnc(N)c(Oc3cnn(CC4(F)CCOCC4)c3)n2)cc2c1CCN(C)C2 [Example 314, 5-(2,5-dimethyl-1,2,3,4-tetrahydroisoquinolin-7-yl)-3-(1-((4-fluoro-tetrahydro-2H-pyran-4-yl)methyl)-1H-pyrazol-4-yloxy)pyrazin-2-amine] |
| 18 | CC#Cc1nn(-c2nc(-c3cc(C)c4c(c3)CN(C)CC4)cnc2N)cc1C(=O)N(C)C [Example 319, 1-(3-amino-6-(2,5-dimethyl-1,2,3,4-tetrahydroisoquinolin-7-yl)pyrazin-2-yl)-N,N-dimethyl-3-(prop-1-ynyl)-1H-pyrazole-4-carboxamide] |

— US12673933B2, “Aminopyrazine compounds as HPK1 inhibitor and the use thereof” (BEIGENE, LTD., priority 2019, dated 2026)
